Tested on: 4T1 breast cancer
Assay: 4T1 breast cancer model (tumor growth, lung metastatic nodules, survival)
Format: in vivo, Balb/c mice
Conditions: for number of metastatic nodules in lungs: lungs harvested on day 12
Description: FIG. 7. Effect of BLN101 on breast tumor growth inhibition. To validate the therapeutic efficacy of BLN101 (as AK750 formulation), we randomly sorted mice bearing 4T1 breast cancer into four groups and treated each group with one of the following: blank vehicle (control); AK750; an antiCSF1 antibody, and BLZ945. Treatment was strated when the tumors reached −75 mm^3 in volume. The day of first injection is considered Day 0). Vehicle-treated animals formed large tumors by Day 12, and consequently were killed. The animals in the other groups were also killed at the same time point to evaluate the effect of the treatments on tumor pathology. […] (b) Changes in body weight were within the acceptable limits.
Later, macrophages are isolated from the tumors and analyzed the cells for expression of markers CD11b+CD206+, CD11b+MHC-II+, CD11b+CD86+ and CD11b+CD80+ on the cells using flow cytometry. […] The tumor-bearing animals are injected with three doses of either Vehicle (for control group), 45 mg/kg of free BLZ-945, 45 mg/kg of BLN101 (in a AK750 formulation), or 25 mg/kg of CSF-1 neutralizing antibody, on day 0, day 4 and day 8. First day of treatment was considered as Day 0. […] Number of metastatic nodules present in the lungs is also quantified. Lungs were harvested from the mice on day 12 following the above treatment, washed with cold PBS followed by which the number of metastatic nodules were counted. […] Later, macrophages are isolated from the tumors and analyzed the cells for expression of markers CD11b+CD206+, CD11b+MHC-II+, CD11b+CD86+ on the cells using flow cytometry. […] SIRPα is a ‘eat-me-not’ signaling, which cancer cells engage with a CD47 ligand, and prevents phagocytosis of the cancer cells. The antibody that inhibits SIRPα was conjugated to the PEG chains on the surface of the AK750 supramolecular nanoparticles. A non-specific IgG was used as controls. […] Furthermore, melanoma-bearing mice is treated with a single dose of SIRPα antibody, AK750 or the SIRPα-AK750. […]

| Structure (SMILES) | tumor growth / progression (45 mg/kg on day 0, day 4 and day 8) | number of metastatic nodules in lungs |
| --- | --- | --- |
| CNC(=O)c1cc(Oc2ccc3nc(N[C@@H]4CCCC[C@H]4O)sc3c2)ccn1 [BLZ-945] | decreased tumor growth compared with vehicle-treated animals | reduction as compared to CSF-1 neutralizing antibody and the vehicle control |
| CNC(=O)c1cc(Oc2ccc3nc(NC4CCCC[C@H]4OC(=O)CCC(=O)O[C@H]4CC[C@@]5(C)C(=CC[C@H]6[C@@H]7CC[C@H](C(C)CCCC(C)C)[C@@]7(C)CC[C@@H]65)C4)sc3c2)ccn1 (stereo in doubt) [BLN101] | – | complete inhibition of formation of metastatic nodules |
